# Source: ChEMBL document CHEMBL4007464, “Lead Development of Thiazolylsulfonamides with Carbonic Anhydrase Inhibitory Action” (J Med Chem, 2017)
# Assays:
# Carbonic anhydrase 9 = Carbonic anhydrase 9 (Homo sapiens, UniProt Q16790); experiment: Inhibition of recombinant human Carbonic anhydrase 9 assessed as reduction in CO2 hydration preincubated for 15 mins prior to testing measured for 10 to 100 secs by stopped-flow assay
# Carbonic anhydrase 12 = Carbonic anhydrase 12 (Homo sapiens, UniProt O43570); experiment: Inhibition of recombinant human Carbonic anhydrase 12 assessed as reduction in CO2 hydration preincubated for 15 mins prior to testing measured for 10 to 100 secs by stopped-flow assay
# Carbonic anhydrase 12, sequence (O43570 whole entry): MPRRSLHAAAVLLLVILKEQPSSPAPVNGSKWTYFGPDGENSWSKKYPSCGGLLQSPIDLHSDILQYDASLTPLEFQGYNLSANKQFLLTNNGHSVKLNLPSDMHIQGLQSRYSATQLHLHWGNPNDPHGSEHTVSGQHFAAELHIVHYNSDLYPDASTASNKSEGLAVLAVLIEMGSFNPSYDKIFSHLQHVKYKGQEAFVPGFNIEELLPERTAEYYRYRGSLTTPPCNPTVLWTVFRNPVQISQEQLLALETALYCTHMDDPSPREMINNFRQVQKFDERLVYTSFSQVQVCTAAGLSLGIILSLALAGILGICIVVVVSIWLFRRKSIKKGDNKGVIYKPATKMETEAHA
# Carbonic anhydrase 1 = Carbonic anhydrase 1 (Homo sapiens, UniProt P00915); experiment: Inhibition of recombinant human Carbonic anhydrase 1 assessed as reduction in CO2 hydration preincubated for 15 mins prior to testing measured for 10 to 100 secs by stopped-flow assay
# Carbonic anhydrase 1, sequence (P00915 whole entry): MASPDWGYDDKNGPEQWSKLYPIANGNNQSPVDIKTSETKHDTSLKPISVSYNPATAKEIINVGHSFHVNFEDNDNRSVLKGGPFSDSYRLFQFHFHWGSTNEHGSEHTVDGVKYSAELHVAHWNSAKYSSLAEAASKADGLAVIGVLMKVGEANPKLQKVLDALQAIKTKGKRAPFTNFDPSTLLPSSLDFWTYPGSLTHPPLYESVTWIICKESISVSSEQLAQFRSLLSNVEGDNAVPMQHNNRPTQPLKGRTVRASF
# [1] = target: Carbonic anhydrase 5B, mitochondrial (Homo sapiens, UniProt Q9Y2D0); experiment: Inhibition of recombinant human Carbonic anhydrase 5B assessed as reduction in CO2 hydration preincubated for 15 mins prior to testing measured for 10 to 100 secs by stopped-flow assay
# Carbonic anhydrase 5B, mitochondrial, sequence (Q9Y2D0 whole entry): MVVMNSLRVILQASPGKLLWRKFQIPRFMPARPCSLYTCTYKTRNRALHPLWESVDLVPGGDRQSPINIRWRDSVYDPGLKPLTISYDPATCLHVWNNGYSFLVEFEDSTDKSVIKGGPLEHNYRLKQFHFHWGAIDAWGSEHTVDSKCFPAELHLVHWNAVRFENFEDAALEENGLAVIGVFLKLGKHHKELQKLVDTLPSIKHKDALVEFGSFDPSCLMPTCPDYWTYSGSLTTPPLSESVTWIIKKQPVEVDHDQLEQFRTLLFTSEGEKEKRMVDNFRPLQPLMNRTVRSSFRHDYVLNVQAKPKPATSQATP
# [2] = target: Carbonic anhydrase 5A, mitochondrial (Homo sapiens, UniProt P35218); experiment: Inhibition of recombinant human Carbonic anhydrase 5A assessed as reduction in CO2 hydration preincubated for 15 mins prior to testing measured for 10 to 100 secs by stopped-flow assay
# Carbonic anhydrase 5A, mitochondrial, sequence (P35218 whole entry): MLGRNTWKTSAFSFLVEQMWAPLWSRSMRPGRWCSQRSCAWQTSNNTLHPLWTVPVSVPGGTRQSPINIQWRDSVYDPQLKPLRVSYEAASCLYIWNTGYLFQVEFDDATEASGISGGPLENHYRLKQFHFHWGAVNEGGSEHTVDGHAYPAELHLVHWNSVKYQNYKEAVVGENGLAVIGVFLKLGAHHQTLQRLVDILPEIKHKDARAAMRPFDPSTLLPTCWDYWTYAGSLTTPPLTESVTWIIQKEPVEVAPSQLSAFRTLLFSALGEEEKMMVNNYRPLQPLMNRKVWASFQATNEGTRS
# Carbonic anhydrase 2 = Carbonic anhydrase 2 (Homo sapiens, UniProt P00918); experiment: Inhibition of recombinant human Carbonic anhydrase 2 assessed as reduction in CO2 hydration preincubated for 15 mins prior to testing measured for 10 to 100 secs by stopped-flow assay
# [3] = Inhibition of carbonic anhydrase in mouse whole blood assessed as reduction in CO2 hydration preincubated for 15 mins prior to testing measured for 10 to 100 secs by stopped-flow assay
# [4] = Inhibition of carbonic anhydrase in rat whole blood assessed as reduction in CO2 hydration preincubated for 15 mins prior to testing measured for 10 to 100 secs by stopped-flow assay
# [5] = Inhibition of carbonic anhydrase in human whole blood assessed as reduction in CO2 hydration preincubated for 15 mins prior to testing measured for 10 to 100 secs by stopped-flow assay
Compound,Ki (Carbonic anhydrase 9),other results
CNS(=O)(=O)c1sc(N(C)C(=O)Cc2ccc(-c3ccccn3)cc2)nc1C,24.7 nM,
CCc1nc(N(C)C(=O)Cc2ccc(-c3ccccn3)cc2)sc1S(N)(=O)=O,28.1 nM,
Cc1nc(N(C)C(=O)Cc2ccc(-c3ccccn3)cc2)sc1S(N)(=O)=O,464 nM,Ki (Carbonic anhydrase 12): 61.3 nM; Ki (Carbonic anhydrase 1): 262 nM; Ki [1]: 251 nM; Ki [2]: 816 nM; Ki (Carbonic anhydrase 2): 14 nM
CN(C(=O)Cc1ccc(-c2ccccn2)cc1)c1nc(CO)c(S(N)(=O)=O)s1,42.9 nM,
Cc1nc(N(C)C(=O)Cc2ccc(-c3cccc[n+]3C)cc2)sc1S(N)(=O)=O,261 nM,
Cc1nc(N(C)C(=O)Cc2ccc(-n3cccn3)cc2)sc1S(N)(=O)=O,35 nM,
CNS(=O)(=O)c1sc(N(C)C(=O)Cc2ccc(-c3ccccc3)cc2)nc1C,40.8 nM,
Cc1nc(N(C)C(=O)Cc2ccc(-c3ccccc3)cc2)sc1S(=O)(=O)NCCO,44.5 nM,
Cc1nc(N(C)C(=O)Cc2ccc(-c3ccccn3)cc2)sc1S(N)(=O)=O [PRITELIVIR],81 nM,IC50 [3]: 134 nM; Ki (Carbonic anhydrase 12): 77.2 nM; Ki (Carbonic anhydrase 1): 323 nM; Ki [1]: 389 nM; IC50 [4]: 115 nM; Ki [2]: 474 nM; Ki (Carbonic anhydrase 2): 12.8 nM; IC50 [5]: 65.3 nM
Cc1nc(N(C(=O)Cc2ccc(-c3ccccc3)cc2)C2CC2)sc1S(N)(=O)=O,1 nM,
Cc1nc(N(C)C(=O)Cc2ccc(-c3cnccn3)cc2)sc1S(N)(=O)=O,69.1 nM,
Cc1nc(N(CCN(C)C)C(=O)Cc2ccc(-c3ccccc3)cc2)sc1S(N)(=O)=O,22 nM,
CNS(=O)(=O)c1sc(N(CCN(C)C)C(=O)Cc2ccc(-c3ccccc3)cc2)nc1C,14 nM,

# The next lines start with results.
Ki (Carbonic anhydrase 9),Compound,other results
0.9 nM,Cc1nc(N(C)C(=O)Cc2ccc(-c3cccc(F)c3)cc2)sc1S(N)(=O)=O,
10.1 nM,Cc1nc(N(C)C(=O)Cc2ccc(-c3ccccc3F)cc2)sc1S(N)(=O)=O,
21.8 nM,COc1c(F)cccc1-c1ccc(CC(=O)N(C)c2nc(C)c(S(N)(=O)=O)s2)cc1,
25.6 nM,CNS(=O)(=O)c1sc(N(C)C(=O)Cc2ccc(-c3ccccc3F)cc2)nc1C,
0.9 nM,Cc1nc(N(C)C(=O)Cc2ccc(-c3ccccc3)cc2)sc1S(N)(=O)=O,
51.4 nM,Cc1nc(N(C)C(=O)Cc2ccc(-c3cc(F)ccc3F)cc2)sc1S(N)(=O)=O,
